Measured values reported in US20230321124A1, “ROR gamma t Inhibitors and Topical Uses Thereof” (DERMIRA, INC., priority 2020, published 2023).

System: IL-17A protein
Test: skin Resident Immune Cell Assay (sRICA), Th17 model, human skin biopsies
Format: cell-based
Settings: Example 2, FIG. 1; 10 ul topical, overnight; media harvested 48 hours after activation; N=6
Description: A skin Resident Immune Cell Assay (sRICA) was used to test Compounds 1, 2 and 3 in Formulations as identified in Example 1 for reduction of IL-17A protein upregulation in the Th17 sRICA model. In this model, human surgical skin waste was cultured in a transwell system, with the dermis in contact with cell culture media and the stratum corneum exposed to air. To perform the assay, each human skin sample was defatted and dermatomed to 750 μm. Next, 8 mm punch biopsies were obtained and placed in a membrane transwell. The biopsies were prepared with a barrier ring to contain the formulation and prevent leakage of the formulation. […]
10 ul of the test solvent system was applied to topically prepared sRICA samples and allowed to penetrate the skin overnight. […] An unpaired, two-tailed students T-test was used to determined statistical significance between Th17 treated skin and treatment groups. The performance of the 3 RORγt inhibitors in Formulations representative of creams (Formulations 3-7), aqueous gels (Formulation 8), non-aqueous gels (Formulations 9-10), and ointments (Formulation 11) were evaluated.
All formulations of containing Compound 1 or Compound 2 were created at 80% saturation, except for all non-aqueous gels (NAG) in which saturation has not yet been determined (>12%) and were arbitrarily formulated at 1% or 5% (see Formulation 10 (1%) and Formulation 10 (5%) in Tables 6 and 7). […]

Structure (SMILES): C[C@H]1C[C@H]2[C@@H]3CCC4=CC(=O)C=C[C@]4(C)[C@@]3(F)[C@@H](O)C[C@]2(C)[C@@]1(O)C(=O)CCl [Clobetasol]
- Th17-cocktail induced IL17A protein in culture media: complete suppression
